# Results reported in a melting point compilation (Tetko et al.; mined from patent text by program, amines drawn as free bases though some values may be those of a salt).
row,Structure (SMILES),melting point
1,CCn1c(=O)c2nc(C=NO)cn2c2ccccc21,286 to 288 °C
2,COc1cc(C(=O)NS(=O)(=O)c2ccccc2C)ccc1Cc1cccc2ccc(C(=O)NCC(C)C)cc12,212 to 214 °C
3,COc1c(O)ccc2cc[nH]c12,83 to 84 °C
4,OC(c1cn(C(c2ccccc2)(c2ccccc2)c2ccccc2)cn1)c1cc(Cl)cc2c1OCOC2 (stereo unspecified),233 to 235 °C
5,C=CCN1C(=O)CC(=O)N(c2ccccc2)c2cc(Cl)ccc21,199 to 201 °C
6,O=C(O)CCCCOc1ccccc1OCc1ccccc1,74 to 75 °C
7,CC/C(=C\CCC(O)(CC)CC)c1cc(COc2ccc(CO)c(CO)c2)cs1,63 to 64 °C
8,c1ccc(Oc2cccc3c2CCN(Cc2c[nH]c4ncccc24)C3)cc1,179 to 180 °C
9,COCOc1cc(OC)c(OC)cc1-c1c(C(=O)OC)nnc(C(=O)OC)c1-c1ccc(OC)c(OC)c1,131 to 133 °C
10,c1ccc2c(NC3CCC(Nc4nccc5ccccc45)CC3)nccc2c1 (stereo unspecified),278 to 280 °C
11,C[C@@](O)(CO)COc1ccc(Br)cc1,90 °C
12,COc1ccc(Cl)cc1-c1c(N)c(=O)[nH]c2cc(Cl)c(Cl)cc12,> 300 °C
13,N#CC(=Cc1ccc(O)c(O)c1)C(=O)O,240 °C
14,C=CCN(C(C)=O)c1cccc(-c2ccc3nncn3n2)c1,139 to 142 °C
15,CC(C)C1COCc2nc3c(N)nc4c(c3n21)CCCC4 (stereo unspecified),158 to 160 °C
16,N#CC(N=C(c1ccccc1)c1ccccc1)c1ncc(C(F)(F)F)cc1Cl (stereo unspecified),105 to 108 °C
17,COc1cc(Nc2c(C#N)cnc3cc4ccccc4cc23)c(C)cc1Cl,195 to 197 °C
18,CON(CCCCn1c(C)nc2c(N)nc3ccccc3c21)C(N)=O,158 to 160 °C
19,CCC(CS(=O)(=O)c1ccc(-c2ccc(OC)cc2)cc1)N(O)C=O (stereo unspecified),199 to 200 °C
20,OCC1Cc2sccc2CN1C(=S)Nc1cccc2cnccc12 (racemic),185 °C
21,COc1ccc(Cn2c(S(=O)(=O)Cc3ccc(C)cn3)nc3cscc32)cc1,148 to 150 °C
22,O=C(O)C(=O)CC(=O)c1ccc(Cc2ccc(Cl)c(Cl)c2)cc1,133 to 140 °C
23,CC(C)(C)c1cc(SCCc2nncs2)cc(C(C)(C)C)c1O,118 to 120 °C
24,CN(C)C=Nc1c(Cl)cc(N=Cc2ccc(C#N)cc2)cc1Cl,169 to 170 °C
25,CCC(=O)Nc1ccc(C(=O)c2nc(-c3cccc(C(=O)O)c3)c3ccccn23)cc1OC,145 °C
26,Cc1ccn(-c2ccc(C(=O)C3c4ccccc4NC=C4N=NNN43)c(Cl)c2)n1 (stereo unspecified),110 to 114 °C

row,Structure (SMILES),melting point
1,Cc1cc(Cl)ccc1-n1nc(O)c2c(=O)c3ccc(Cl)cc3[nH]c2c1=O,336 to 339 °C
2,O=C1CNC=Nc2[nH]cnc21,260 °C
3,Cn1cc(C#N)c(Nc2ccc([N+](=O)[O-])cc2N)n1,204 °C
4,O=C1CCCCc2cc(OCc3ccccc3)c(O)cc21,127 to 128 °C
5,COc1ccccc1N(CC(=O)OC(C)(C)C)C(=O)CNC(=O)Nc1cccc(C)c1,171 °C
6,CNc1nc2ccc(CCc3nc4cc(OC)ccn4c3C)cc2o1,203 to 205 °C
7,Cc1c2ccc(-c3nn(C(C)c4oc5ccccc5c(=O)c4-c4cccc(F)c4)c4ncnc(N)c34)cc2nn1C (stereo unspecified),269 to 274 °C
8,O=C(O)CCCCCCCCc1ccc(O)cc1,103 to 105 °C
9,CSCC(C)NC(=O)c1c(I)cccc1C(=O)Nc1ccc(C2(C(F)(F)F)CC(c3ccc(Cl)cc3)=NO2)cc1C (stereo unspecified),116 to 120 °C
10,Cc1ccc([N+](=O)[O-])c(C)c1[N+](=O)[O-],81 to 83 °C
11,CCN(CC)CCCNC(=O)Cn1c(-c2ccc(Cl)cc2)nc2cccnc21,172 to 174 °C
12,CCCc1nc(C#N)c(C#N)[nH]1,141 to 144 °C
13,Nc1nc2ccccc2c2c1ncn2CCOCCCc1ccncc1,160 to 162 °C
14,CC(C)(C)Nc1nc(C#N)c(C#N)nc1Cl,169 to 173 °C
15,COc1cc(OCC(=O)O)c(C)cc1SCc1ccc(-c2ccc(C(F)(F)F)cc2)cc1,170 to 171 °C
16,CCOC(=O)C1=C(C)NC(CS(=O)c2ccccc2)=C(C(=O)OCC)C1c1cccc([N+](=O)[O-])c1 (stereo unspecified),160 to 162 °C
17,OCC1OC(n2cnc3c(-n4cccc4)ncnc32)C(O)C1O (stereo unspecified),114 to 115 °C
18,Cc1cccc(C)c1N(CCCC(=O)O)C(=O)CN(C(=O)c1ccc(Cl)cc1)c1c(C)cccc1C,214 to 216 °C
19,CCOC(=O)c1cc(=O)c2cccc(NC(=O)c3ccc4c(c3)CC(CSCc3ccccc3)O4)c2o1 (stereo unspecified),175 to 177 °C
20,CCOC(=O)c1ccc(-c2cccc(O)c2)cc1,76 °C
21,CCOC(=O)c1c(Cn2cncn2)nc2sc3c(c2c1-c1ccc(OC)c(OC)c1)CCN(C(=O)c1ccccc1)C3,193 to 194 °C
22,CON(C(=O)c1cccnc1Cl)C1CCCCC1,96 to 98 °C
23,c1cc(CN2CCCCC2)cc(OCCCNc2ncnc3ccccc23)c1,111 °C
24,O=C(O)Cc1onc(O)c1Br,167 °C
25,COc1cc(C=Nc2cc(Cl)c(N=CN(C)C)c(Cl)c2)cc(OC)c1,133 to 135 °C
26,Cc1ccc(-c2c(CNC(=O)OC(C)(C)C)c(CC(C)(C)C)nc(C)c2C(=O)O)cc1,216 to 217 °C

row,Structure (SMILES),melting point
1,CCc1c(OC)nc2nc(-c3noc(C(F)(F)F)n3)cn2c1C,197 to 200 °C
2,CCSc1nc(-c2ccc(OC)cc2)c(-c2ccc(OC)cc2)s1,73 to 75 °C
3,Cc1onc(-c2ccccc2)c1-c1cc(F)c(S(C)(=O)=O)c(F)c1,140 to 143 °C
4,Cc1cc(C2=NNC(C)Cc3cc4c(cc32)OCO4)ccc1[N+](=O)[O-] (stereo unspecified),144 to 147 °C
5,O=C1CN=C(c2ccccc2)c2cc(C(c3ccc(Cl)cc3)n3ccnc3)ccc2N1 (stereo unspecified),144 °C
6,O=[N+]([O-])c1cccc(F)c1CCO,42 to 44 °C
7,CCOC(=O)C1COc2cc(C=O)c(Cl)c(Cl)c2O1 (stereo unspecified),101 to 102 °C
8,Cc1ccc(S(=O)(=O)c2ccc3c(c2)C(O)C(Br)C(C)(C)O3)cc1 (stereo unspecified),141 to 142 °C
9,CCOCCN(CCOCC)C(=O)c1n[nH]c2c(=O)[nH]c3cc(Cl)ccc3c(=O)c12,202 °C
10,FCc1cc(-c2nnc3c4ccccc4c(OCc4nc[nH]n4)nn23)no1,266 to 268 °C
11,CCC(O)(c1ccc(OCCCN2CCCCC2)cc1)c1cccc(C(F)(F)F)c1 (stereo unspecified),124 to 125 °C
12,COc1ccc(CCNC(=S)Nc2nc3ccccc3[nH]2)cc1,166 to 172 °C
13,CC=C1C(=O)N2C(C(=O)OCc3ccc([N+](=O)[O-])cc3)=C(SCCNC(=O)OCc3ccc([N+](=O)[O-])cc3)CC12 (stereo unspecified),160 to 161 °C
14,CCCCc1nc(S)c(C(=O)OCC)n1Cc1cc2c(cc1Cl)OCO2,114 °C
15,CC(Oc1ccc(N(C)c2nnc3cc(Cl)ccc3n2)cc1)C(=O)O (stereo unspecified),125 °C
16,CC1(C)OC(c2ccc(S(N)(=O)=O)cc2)=C(c2ccc(F)cc2)C1=O,162 to 163 °C
17,CCS(=O)(=O)NNC(=O)NNS(=O)(=O)CC,195 °C
18,CN1c2ccc(Cl)cc2C(c2ccccc2Cl)=Nc2cccnc21,150 to 152 °C
19,O=C1NCCN1Cc1cccnc1,58 to 86 °C
20,CCCCCNC(=O)c1ccc(N2CCC(N3C(=O)C(F)(F)c4ccccc43)CC2)nn1,100 to 102 °C
21,ClC(c1ccccc1)(c1ccccc1)c1ccc2ccccc2c1,92 to 93 °C
22,O=C(NCCO[N+](=O)[O-])c1csc(C(F)(F)F)n1,81 to 82 °C
23,CC(=O)NC[C@H]1CN(c2ccc(C(=O)c3ccc4ccc(C)cn34)cc2)C(=O)O1,237 to 239 °C
24,CC(=O)N(CC(C)O)c1c(C)cccc1C (stereo unspecified),64 to 67 °C
25,O=C(Nc1ccccc1)C1=C(N2CCCC2)COC1=O,200 to 201 °C
26,Cc1nc2cccc(OCC(C)(C)NC(=O)CN3CCOCC3)c2c(N)c1C(=O)O,173 to 175 °C

row,Structure (SMILES),melting point
1,CCN(CC)C(=O)CC(=O)CC(=O)/C=C/c1c(C2CC2)nc2ccccc2c1-c1ccc(F)cc1,97 to 105 °C
2,O=C(NCc1ccccn1)Nc1cc(N2CC(CCc3ccccc3)OC2=O)ccn1 (stereo unspecified),194 to 195 °C
3,CCc1c(N)nc(-c2ccc(Cl)c(OC)c2F)nc1C(=O)OC,144 to 146 °C
4,CNc1cc(F)cc(NC)c1[N+](=O)[O-],198 °C
5,CNC(=O)N1CC(Oc2ccc(C(N)=O)cc2)C1,208 to 210 °C
6,CCOC(=O)C1[C@@H]2[C@@H](O)[C@@H]3O[C@H](c4ccc(C(F)(F)F)cc4)OC[C@H]3O[C@H]12 (stereo partly specified),128 to 131 °C
7,Cn1nc(C#N)nc1NCCCOc1cccc(CN2CCCCC2)c1,66 to 67 °C
8,CC(=O)c1nc2ccc(Oc3ccccc3)cc2cc1O,131 to 133 °C
9,C#CCn1c(-c2ccccc2)nc(O)c(CC)c1=O,159 to 160 °C
10,CCNc1nc(=S)n(Cc2ccc(OC)c(OC3CCCC3)c2)c2nc[nH]c12,72 to 77 °C
11,O=C1Nc2ccc(F)c(F)c2C1c1ncnc2c1cnn2C1CCCC1 (stereo unspecified),> 300 °C
12,COCCNC(=O)c1cccc(-c2cccc3c2nc(Oc2cccc(C(F)(F)F)c2)n3C)c1,146 to 147 °C
13,CCC(=O)N1CCC(NC(=O)NC2CCCCC2)CC1,177 to 179 °C
14,COc1ccc(C2Sc3cc(Cl)ccc3NC(=O)C2=O)cc1 (stereo unspecified),168 to 169 °C
15,CCCCOc1ccccc1Nc1ncc(C(=O)O)c(=O)[nH]1,212 to 214 °C
16,COc1cc2sc(C)nc2cc1C,89 to 90 °C
17,CCCCN1C(=O)NC(CO)C1=O (stereo unspecified),93 °C
18,Cn1cc(C2=C(c3cn(C)c4cc(CC#N)ccc34)C(=O)NC2=O)c2ccccc21,225 to 226 °C
19,O=C(O)CC1ON(C(=O)OCc2ccccc2)C(=O)C1N1C(=O)c2ccccc2C1=O (stereo unspecified),160 to 162 °C
20,CCOc1ccccc1-c1ncc(C(N)=O)c(=O)[nH]1,236 to 238 °C
21,CCNc1ccc2c(c1)CNC2,69 to 71 °C
22,CC(C)(C)OC(=O)NNc1ccc(N2C(=O)C=CC2=O)cn1,182 to 184 °C
23,CCOC(=O)c1ncn2c1cnc1ccccc12,195 to 196 °C
